# Literature values, collected in patent publication US5668134A, “Method for preventing or reducing photosensitivity and/or phototoxicity reactions to medications” (priority 1994, dated 1997).
# Test system: skin
# Details: Table 1; cited from earlier work
SMILES,Action Spectrum,Type of Photoreaction
CNC1=Nc2ccc(Cl)cc2C(c2ccccc2)=[N+]([O-])C1 [Chlordiazepoxide],290-360 nm,Photoallergic
CN(C)N=Nc1[nH]cnc1C(N)=O [DTIC],,Phototoxic
C=C[C@H]1C[N@@]2CC[C@H]1C[C@@H]2[C@@H](O)c1ccnc2ccc(OC)cc12 [Quinidine],,Photoallergic
"O=c1[nH]cc(F)c(=O)[nH]1 [fluorouracil, 5-fluoro-2,4 (1H,3H)-pyrimidinedione]",,Phototoxic
CN(Cc1cnc2nc(N)nc(N)c2n1)c1ccc(C(=O)N[C@@H](CCC(=O)O)C(=O)O)cc1 [methotrexate],,Phototoxic
CCn1cc(C(=O)O)c(=O)c2ccc(C)nc21 [nalidixic acid],320-400 nm,
C=C[C@H]1C[N@@]2CC[C@H]1C[C@H]2[C@H](O)c1ccnc2ccc(OC)cc12 [quinine],,Photoallergic
CCCCNC(=O)NS(=O)(=O)c1ccc(C)cc1 [tolbutamide],290-360 nm,
CC[C@]1(O)C[C@@H]2CN(CCc3c([nH]c4ccccc34)[C@@](C(=O)OC)(c3cc4c(cc3OC)N(C)[C@H]3[C@@](O)(C(=O)OC)[C@H](OC(C)=O)[C@]5(CC)C=CCN6CC[C@]43[C@@H]65)C2)C1 [vinblastine],,Phototoxic

# Same assay, conditions: cited from earlier work
row,SMILES,Action Spectrum
1,C=C[C@H]1C[N@@]2CC[C@H]1C[C@@H]2[C@@H](O)c1ccnc2ccc(OC)cc12 [Quinidine],320-400 nm
2,CCCNC(=O)NS(=O)(=O)c1ccc(Cl)cc1 [chlorpropamide],290-360 nm
3,COC1=CC(=O)C[C@@H](C)[C@]12Oc1c(Cl)c(OC)cc(OC)c1C2=O [griseofulvin],320-400 nm
4,C=C[C@H]1C[N@@]2CC[C@H]1C[C@H]2[C@H](O)c1ccnc2ccc(OC)cc12 [quinine],320-400 nm
